{
  "source": "paper PMC7316778",
  "about": "(Nature Communications, 2020)",
  "assay_in_all_cases": "SelectScreen kinase assay",
  "key": {"WNK1": {"molecular_target": "WNK1 (Homo sapiens, UniProt Q9H4A3)", "procedure": "(§1) Selectivity profiling assays were performed by the Invitrogen SelectScreen™ Services. […] The concentration of ATP was selected to be equal to the KM, unless indicated otherwise."}, "TAOK2 (TAO1)": {"molecular_target": "TAOK2 (TAO1) (Homo sapiens, UniProt Q9UL54)", "sequence (Q9UL54 whole entry)": "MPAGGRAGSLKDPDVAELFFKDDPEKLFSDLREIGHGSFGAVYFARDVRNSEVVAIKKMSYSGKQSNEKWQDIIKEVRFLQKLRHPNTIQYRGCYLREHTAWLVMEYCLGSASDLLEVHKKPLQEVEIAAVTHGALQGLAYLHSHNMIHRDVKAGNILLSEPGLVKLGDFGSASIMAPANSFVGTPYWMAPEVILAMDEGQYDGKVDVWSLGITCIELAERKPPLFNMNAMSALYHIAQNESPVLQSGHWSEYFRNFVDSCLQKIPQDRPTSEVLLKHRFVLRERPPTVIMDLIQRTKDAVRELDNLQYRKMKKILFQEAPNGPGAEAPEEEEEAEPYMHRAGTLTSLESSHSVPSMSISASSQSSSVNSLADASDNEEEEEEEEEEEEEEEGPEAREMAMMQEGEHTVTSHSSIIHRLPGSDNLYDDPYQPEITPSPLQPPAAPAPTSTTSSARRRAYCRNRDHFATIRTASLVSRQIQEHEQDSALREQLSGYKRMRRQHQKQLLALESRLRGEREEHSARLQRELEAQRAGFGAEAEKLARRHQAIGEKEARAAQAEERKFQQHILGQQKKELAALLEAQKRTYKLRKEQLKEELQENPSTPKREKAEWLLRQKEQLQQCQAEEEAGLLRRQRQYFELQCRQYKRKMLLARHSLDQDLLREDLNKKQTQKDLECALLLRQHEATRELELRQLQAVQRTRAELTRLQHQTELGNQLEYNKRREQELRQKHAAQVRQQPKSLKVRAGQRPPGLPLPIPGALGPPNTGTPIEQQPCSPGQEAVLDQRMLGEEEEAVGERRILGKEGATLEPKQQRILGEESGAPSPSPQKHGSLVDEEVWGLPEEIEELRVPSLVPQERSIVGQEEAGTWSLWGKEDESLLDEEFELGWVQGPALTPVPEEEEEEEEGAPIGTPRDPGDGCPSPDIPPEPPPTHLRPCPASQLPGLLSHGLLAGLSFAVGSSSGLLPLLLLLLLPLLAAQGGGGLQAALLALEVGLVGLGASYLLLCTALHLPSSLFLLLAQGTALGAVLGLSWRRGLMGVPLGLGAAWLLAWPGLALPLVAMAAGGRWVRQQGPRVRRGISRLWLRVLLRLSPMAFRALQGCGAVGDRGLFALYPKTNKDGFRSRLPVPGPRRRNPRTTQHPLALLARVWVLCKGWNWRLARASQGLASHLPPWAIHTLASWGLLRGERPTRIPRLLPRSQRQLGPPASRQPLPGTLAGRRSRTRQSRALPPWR", "procedure": "as §1"}, "ADRBK2 (GRK3)": {"molecular_target": "T1, ADRBK2 (GRK3) (Homo sapiens, UniProt P35626)", "T1 sequence (P35626 1-688)": "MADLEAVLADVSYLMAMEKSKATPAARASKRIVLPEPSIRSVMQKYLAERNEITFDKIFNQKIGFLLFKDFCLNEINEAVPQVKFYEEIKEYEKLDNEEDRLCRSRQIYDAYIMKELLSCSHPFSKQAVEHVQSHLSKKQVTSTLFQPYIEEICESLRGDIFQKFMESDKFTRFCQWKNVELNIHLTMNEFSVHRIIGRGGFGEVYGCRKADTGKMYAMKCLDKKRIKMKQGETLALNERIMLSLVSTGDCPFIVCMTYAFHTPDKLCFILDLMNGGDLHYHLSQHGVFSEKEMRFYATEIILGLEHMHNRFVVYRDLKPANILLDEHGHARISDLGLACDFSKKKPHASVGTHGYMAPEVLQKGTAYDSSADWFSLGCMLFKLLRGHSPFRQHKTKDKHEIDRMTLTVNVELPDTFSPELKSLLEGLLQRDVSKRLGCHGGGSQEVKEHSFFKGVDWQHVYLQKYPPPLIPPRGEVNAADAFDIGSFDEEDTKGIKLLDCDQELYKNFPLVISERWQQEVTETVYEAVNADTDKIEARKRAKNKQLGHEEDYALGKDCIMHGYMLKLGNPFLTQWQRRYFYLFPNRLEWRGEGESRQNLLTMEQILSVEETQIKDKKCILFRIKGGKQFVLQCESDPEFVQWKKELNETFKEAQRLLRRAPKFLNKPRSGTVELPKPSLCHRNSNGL", "procedure": "as §1"}, "WNK3": {"molecular_target": "WNK3 (Homo sapiens, UniProt Q9BYP7)", "procedure": "as §1"}, "TLK1": {"molecular_target": "TLK1 (Homo sapiens, UniProt Q9UKI8)", "procedure": "as §1"}, "PRKCQ (PKC theta)": {"molecular_target": "PRKCQ (PKC theta) (Homo sapiens, UniProt Q04759)", "details": "1 h, 1 μM WEL028, 1 h preincubation", "procedure": "as §1"}, "RPS6KA6 (RSK4)": {"molecular_target": "RPS6KA6 (RSK4) (Homo sapiens, UniProt Q9UK32)", "sequence (Q9UK32 whole entry)": "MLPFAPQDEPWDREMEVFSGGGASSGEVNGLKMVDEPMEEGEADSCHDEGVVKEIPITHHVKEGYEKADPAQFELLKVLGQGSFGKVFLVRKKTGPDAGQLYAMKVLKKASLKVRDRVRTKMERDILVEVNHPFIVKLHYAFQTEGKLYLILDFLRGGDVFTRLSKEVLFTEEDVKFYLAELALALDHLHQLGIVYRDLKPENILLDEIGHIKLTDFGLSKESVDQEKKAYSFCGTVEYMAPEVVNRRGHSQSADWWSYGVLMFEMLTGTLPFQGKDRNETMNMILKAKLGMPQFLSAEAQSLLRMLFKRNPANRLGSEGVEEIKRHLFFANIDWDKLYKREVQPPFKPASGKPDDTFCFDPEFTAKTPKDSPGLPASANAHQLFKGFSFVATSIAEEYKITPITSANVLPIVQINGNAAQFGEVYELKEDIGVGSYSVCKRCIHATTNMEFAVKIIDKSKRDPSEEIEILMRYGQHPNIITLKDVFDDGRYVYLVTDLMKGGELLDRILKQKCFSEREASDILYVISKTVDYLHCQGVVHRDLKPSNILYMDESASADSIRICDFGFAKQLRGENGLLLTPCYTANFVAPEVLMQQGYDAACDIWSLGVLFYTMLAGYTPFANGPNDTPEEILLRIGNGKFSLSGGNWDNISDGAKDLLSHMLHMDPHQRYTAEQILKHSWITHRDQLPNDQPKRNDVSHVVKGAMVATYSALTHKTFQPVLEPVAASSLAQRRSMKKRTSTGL", "procedure": "as §1"}, "FYN A": {"molecular_target": "FYN A (Homo sapiens, UniProt P06241)", "sequence (P06241 whole entry)": "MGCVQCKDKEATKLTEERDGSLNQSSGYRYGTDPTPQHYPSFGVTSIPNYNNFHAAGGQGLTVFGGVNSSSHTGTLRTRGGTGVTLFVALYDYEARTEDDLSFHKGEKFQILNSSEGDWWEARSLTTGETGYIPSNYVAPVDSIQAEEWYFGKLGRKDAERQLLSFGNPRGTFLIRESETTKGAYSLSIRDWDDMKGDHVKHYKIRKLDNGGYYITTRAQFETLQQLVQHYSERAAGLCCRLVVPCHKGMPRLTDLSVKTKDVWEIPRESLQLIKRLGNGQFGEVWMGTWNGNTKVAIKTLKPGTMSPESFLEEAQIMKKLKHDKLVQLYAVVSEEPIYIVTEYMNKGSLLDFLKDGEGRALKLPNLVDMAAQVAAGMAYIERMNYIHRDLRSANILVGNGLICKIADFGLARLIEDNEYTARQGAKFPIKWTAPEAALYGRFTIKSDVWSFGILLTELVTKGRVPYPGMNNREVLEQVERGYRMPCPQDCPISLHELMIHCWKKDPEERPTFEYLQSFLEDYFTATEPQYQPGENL", "procedure": "as §1"}, "TNK2 (ACK) [1]": {"molecular_target": "TNK2 (ACK) (Homo sapiens, UniProt Q07912)"}, "TNK2 (ACK) [2]": {"test_system": "TNK2 (ACK)", "details": "IC50 on that kinase divided by IC50 on FES^S700C"}, "PAK4": {"molecular_target": "PAK4 (Homo sapiens, UniProt O96013)", "sequence (O96013 whole entry)": "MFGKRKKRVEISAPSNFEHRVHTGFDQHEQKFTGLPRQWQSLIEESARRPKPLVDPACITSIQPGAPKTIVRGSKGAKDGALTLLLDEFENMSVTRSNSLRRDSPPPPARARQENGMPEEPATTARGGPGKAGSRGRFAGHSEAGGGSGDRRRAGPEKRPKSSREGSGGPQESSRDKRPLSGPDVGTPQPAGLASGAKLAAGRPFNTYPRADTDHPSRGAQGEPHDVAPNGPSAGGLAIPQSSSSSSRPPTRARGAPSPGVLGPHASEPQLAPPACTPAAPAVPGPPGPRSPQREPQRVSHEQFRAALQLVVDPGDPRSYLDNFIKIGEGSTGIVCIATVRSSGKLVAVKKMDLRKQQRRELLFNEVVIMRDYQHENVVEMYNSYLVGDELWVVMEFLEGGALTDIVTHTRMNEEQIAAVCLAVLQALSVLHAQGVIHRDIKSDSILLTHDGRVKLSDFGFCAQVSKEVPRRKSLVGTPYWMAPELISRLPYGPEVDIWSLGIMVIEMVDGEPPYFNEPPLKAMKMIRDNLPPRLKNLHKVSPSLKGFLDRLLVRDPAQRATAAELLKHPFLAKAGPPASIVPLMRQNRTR", "procedure": "as §1"}, "MELK": {"molecular_target": "MELK (Homo sapiens, UniProt Q14680)", "procedure": "as §1"}, "PRKX": {"molecular_target": "PRKX (Homo sapiens, UniProt P51817)", "sequence (P51817 whole entry)": "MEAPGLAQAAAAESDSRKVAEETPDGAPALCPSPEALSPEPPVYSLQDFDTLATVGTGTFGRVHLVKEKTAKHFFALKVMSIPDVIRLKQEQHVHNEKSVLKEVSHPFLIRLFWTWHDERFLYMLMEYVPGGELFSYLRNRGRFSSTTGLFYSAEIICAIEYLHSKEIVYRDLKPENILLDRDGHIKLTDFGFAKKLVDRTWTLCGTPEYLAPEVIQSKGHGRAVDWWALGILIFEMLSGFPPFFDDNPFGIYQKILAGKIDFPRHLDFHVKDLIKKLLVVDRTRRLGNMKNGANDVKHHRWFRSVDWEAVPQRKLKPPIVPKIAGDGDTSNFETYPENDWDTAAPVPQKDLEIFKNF", "procedure": "as §1"}, "CDK7/cyclin H/MNAT1": {"molecular_target": "CDK7/cyclin H/MNAT1 (Homo sapiens, UniProt P50613)", "procedure": "as §1"}, "MAPK15 (ERK7)": {"molecular_target": "T2, MAPK15 (ERK7) (Homo sapiens, UniProt Q8TD08)", "T2 sequence (Q8TD08 1-544)": "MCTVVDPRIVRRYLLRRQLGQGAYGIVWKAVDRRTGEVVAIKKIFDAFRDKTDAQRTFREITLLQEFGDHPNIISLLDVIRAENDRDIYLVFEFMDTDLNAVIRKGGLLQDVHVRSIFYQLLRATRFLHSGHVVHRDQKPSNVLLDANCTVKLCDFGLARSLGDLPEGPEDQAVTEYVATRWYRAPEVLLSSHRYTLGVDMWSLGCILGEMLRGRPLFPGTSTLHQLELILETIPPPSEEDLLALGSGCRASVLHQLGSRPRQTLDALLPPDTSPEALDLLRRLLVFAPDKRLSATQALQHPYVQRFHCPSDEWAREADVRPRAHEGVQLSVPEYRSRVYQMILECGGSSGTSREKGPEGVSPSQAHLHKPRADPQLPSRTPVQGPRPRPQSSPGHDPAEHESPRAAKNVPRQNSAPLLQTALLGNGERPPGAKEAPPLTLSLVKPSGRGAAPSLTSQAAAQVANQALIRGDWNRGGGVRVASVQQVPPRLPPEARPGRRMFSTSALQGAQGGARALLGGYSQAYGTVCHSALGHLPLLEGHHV", "procedure": "as §1"}, "DYRK3": {"molecular_target": "DYRK3 (Homo sapiens, UniProt O43781)", "sequence (O43781 whole entry)": "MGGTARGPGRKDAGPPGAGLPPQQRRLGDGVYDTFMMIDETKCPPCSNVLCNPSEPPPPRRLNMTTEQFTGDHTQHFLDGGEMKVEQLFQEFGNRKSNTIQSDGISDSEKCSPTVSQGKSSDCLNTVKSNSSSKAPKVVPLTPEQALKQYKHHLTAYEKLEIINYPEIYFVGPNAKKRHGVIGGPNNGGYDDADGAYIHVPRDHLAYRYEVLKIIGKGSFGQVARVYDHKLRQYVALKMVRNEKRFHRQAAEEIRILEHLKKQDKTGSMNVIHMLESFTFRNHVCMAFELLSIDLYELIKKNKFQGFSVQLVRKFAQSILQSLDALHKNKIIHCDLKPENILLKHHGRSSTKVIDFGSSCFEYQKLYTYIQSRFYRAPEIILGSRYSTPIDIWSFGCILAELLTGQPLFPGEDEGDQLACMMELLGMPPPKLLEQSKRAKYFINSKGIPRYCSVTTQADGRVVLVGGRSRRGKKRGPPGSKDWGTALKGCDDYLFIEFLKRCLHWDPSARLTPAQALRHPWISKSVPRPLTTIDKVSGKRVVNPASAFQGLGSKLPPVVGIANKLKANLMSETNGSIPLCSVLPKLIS", "procedure": "as §1"}, "ROCK2": {"molecular_target": "ROCK2 (Homo sapiens, UniProt O75116)", "details": "1 h, 1 μM WEL028, 1 h preincubation", "procedure": "as §1"}, "NTRK3 (TRKC)": {"molecular_target": "NTRK3 (TRKC) (Homo sapiens, UniProt Q16288)", "sequence (Q16288 32-839)": "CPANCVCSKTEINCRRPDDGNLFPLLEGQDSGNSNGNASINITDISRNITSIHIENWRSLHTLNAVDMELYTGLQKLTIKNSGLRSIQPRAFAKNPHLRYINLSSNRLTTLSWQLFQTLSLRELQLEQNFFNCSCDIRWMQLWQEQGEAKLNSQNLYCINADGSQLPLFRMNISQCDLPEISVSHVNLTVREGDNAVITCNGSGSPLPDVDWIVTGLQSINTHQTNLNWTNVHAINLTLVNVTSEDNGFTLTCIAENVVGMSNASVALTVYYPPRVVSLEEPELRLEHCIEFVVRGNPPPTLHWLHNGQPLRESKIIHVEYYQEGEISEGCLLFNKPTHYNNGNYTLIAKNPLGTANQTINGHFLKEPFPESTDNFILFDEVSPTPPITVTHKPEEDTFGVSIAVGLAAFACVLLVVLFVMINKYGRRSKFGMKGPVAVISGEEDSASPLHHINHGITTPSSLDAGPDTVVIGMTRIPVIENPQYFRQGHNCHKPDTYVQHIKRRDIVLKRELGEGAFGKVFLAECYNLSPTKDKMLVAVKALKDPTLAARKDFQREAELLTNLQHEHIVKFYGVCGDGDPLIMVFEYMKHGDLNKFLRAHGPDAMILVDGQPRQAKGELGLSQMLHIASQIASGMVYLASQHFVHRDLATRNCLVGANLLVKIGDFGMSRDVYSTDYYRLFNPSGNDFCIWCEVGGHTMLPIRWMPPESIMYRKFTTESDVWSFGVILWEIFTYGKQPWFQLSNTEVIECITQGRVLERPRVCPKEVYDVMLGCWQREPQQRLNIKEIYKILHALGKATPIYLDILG", "procedure": "as §1"}, "[3]": {"details": "1 µM, ZLYTE, ATP Km app, listed as WEL028, 1 µM"}, "[4]": {"details": "1 h, 1 μM WEL028, 1 h preincubation"}, "[5]": {"details": "1 µM, LanthaScreen Binding, listed as WEL028, 1 µM"}, "[6]": {"details": "read-out: Inhibition at 1 µM (%), 1 µM, LanthaScreen Binding"}},
  "note": "“And” between values parts separate entries of the source, which are not always exact repeats. Equal values may be shown once. Read-outs that look alike come from different tables or passages of the source.",
  "data": [
    {"smiles": "C#CCOc1ccc(Nc2ncc(Cl)c(Nc3ccccc3NC(=O)C=C)n2)c(OC)c1", "note": "[Compound 6]", "values": [
      {"measurement": "Inhibition (%)", "setting": "WNK1; 1 μM WEL028, 1 h preincubation", "value": 5, "unit": "%"},
      {"measurement": "Inhibition at 1 µM (%)", "setting": "WNK1; 1 µM, LanthaScreen Binding", "value": 11, "unit": "%"},
      {"measurement": "Inhibition at 1 µM (%)", "setting": "TAOK2 (TAO1); [3]", "value": "-1% and 9%"},
      {"measurement": "inhibition at 1 µM", "setting": "TAOK2 (TAO1); [4]", "value": 4, "unit": "%"},
      {"measurement": "inhibition at 1 µM", "setting": "ADRBK2 (GRK3); [4]", "value": 7, "unit": "%"},
      {"measurement": "Inhibition at 1 µM (%)", "setting": "ADRBK2 (GRK3); ADRBK2 (GRK3), 1 µM, ZLYTE, ATP Km app, listed as WEL028, 1 µM", "value": 8, "unit": "%"},
      {"measurement": "inhibition at 1 µM", "setting": "ADRBK2 (GRK3); read-out: Inhibition at 1 µM (%), ADRBK2 (GRK3), 1 µM, ZLYTE, ATP Km app", "value": 5, "unit": "%"},
      {"measurement": "Inhibition at 1 µM (%)", "setting": "WNK3; [5]", "value": "5% and 1%"},
      {"measurement": "inhibition at 1 µM", "setting": "WNK3; [4]", "value": 3, "unit": "%"},
      {"measurement": "inhibition at 1 µM", "setting": "TLK1; [4]", "value": 1, "unit": "%"},
      {"measurement": "inhibition at 1 µM", "setting": "TLK1; [6]", "value": 2, "unit": "%"},
      {"measurement": "inhibition at 1 µM", "setting": "PRKCQ (PKC theta)", "value": 8, "unit": "%"},
      {"measurement": "Inhibition (%)", "setting": "RPS6KA6 (RSK4); 1 μM WEL028, 1 h preincubation", "value": 5, "unit": "%"},
      {"measurement": "Inhibition at 1 µM (%)", "setting": "RPS6KA6 (RSK4); [3]", "value": "1% and 9%"},
      {"measurement": "inhibition at 1 µM", "setting": "FYN A; [4]", "value": 3, "unit": "%"},
      {"measurement": "Inhibition at 1 µM (%)", "setting": "FYN A; FYN A, 1 µM, LanthaScreen Binding, listed as WEL028, 1 µM", "value": "-1% and 7%"},
      {"measurement": "IC50", "setting": "TNK2 (ACK) [1]", "value": 0.316, "unit": "µM"},
      {"measurement": "Inhibition at 1 µM (%)", "setting": "TNK2 (ACK) [1]; [5]", "value": 72, "unit": "%"},
      {"measurement": "inhibition at 1 µM", "setting": "TNK2 (ACK) [1]; [4]", "value": 73, "unit": "%"},
      {"measurement": "inhibition at 10 µM", "setting": "TNK2 (ACK) [1]; 1 h, log[inhibitor] (M) -5.00, LanthaScreen Binding", "value": 46, "unit": "%"},
      {"measurement": "inhibition at 3.311 µM", "setting": "TNK2 (ACK) [1]; 1 h, log[inhibitor] (M) -5.48, LanthaScreen Binding", "value": 70, "unit": "%"},
      {"measurement": "inhibition at 1.122 µM", "setting": "TNK2 (ACK) [1]; 1 h, log[inhibitor] (M) -5.95, LanthaScreen Binding", "value": 77, "unit": "%"},
      {"measurement": "inhibition at 0.3715 µM", "setting": "TNK2 (ACK) [1]; 1 h, log[inhibitor] (M) -6.43, LanthaScreen Binding", "value": 48, "unit": "%"},
      {"measurement": "inhibition at 0.123 µM", "setting": "TNK2 (ACK) [1]; 1 h, log[inhibitor] (M) -6.91, LanthaScreen Binding", "value": 25, "unit": "%"},
      {"measurement": "inhibition at 0.04074 µM", "setting": "TNK2 (ACK) [1]; 1 h, log[inhibitor] (M) -7.39, LanthaScreen Binding", "value": 5, "unit": "%"},
      {"measurement": "inhibition at 1 µM", "setting": "TNK2 (ACK) [1]; [6]", "value": 74, "unit": "%"},
      {"measurement": "Apparent fold selectivity", "setting": "TNK2 (ACK) [2]", "value": 76, "unit": "fold"},
      {"measurement": "inhibition at 1 µM", "setting": "PAK4; [4]", "value": -4, "unit": "%"},
      {"measurement": "Inhibition at 1 µM (%)", "setting": "PAK4; PAK4, 1 µM, ZLYTE, ATP Km app, listed as WEL028, 1 µM", "value": "-8% and 1%"},
      {"measurement": "inhibition at 1 µM", "setting": "MELK; [4]", "value": -2, "unit": "%"},
      {"measurement": "Inhibition at 1 µM (%)", "setting": "MELK; MELK, 1 µM, ZLYTE, ATP Km app, listed as WEL028, 1 µM", "value": -3, "unit": "%"},
      {"measurement": "Inhibition at 1 µM (%)", "setting": "PRKX; [3]", "value": "-6% and 0%"},
      {"measurement": "inhibition at 1 µM", "setting": "PRKX; [4]", "value": -3, "unit": "%"},
      {"measurement": "inhibition at 1 µM", "setting": "CDK7/cyclin H/MNAT1; [4]", "value": 6, "unit": "%"},
      {"measurement": "Inhibition at 1 µM (%)", "setting": "CDK7/cyclin H/MNAT1; CDK7/cyclin H/MNAT1, 1 µM, Adapta, ATP Km app, listed as WEL028, 1 µM", "value": "2% and 11%"},
      {"measurement": "inhibition at 1 µM", "setting": "MAPK15 (ERK7); [4]", "value": 5, "unit": "%"},
      {"measurement": "Inhibition at 1 µM (%)", "setting": "MAPK15 (ERK7); MAPK15 (ERK7), 1 µM, LanthaScreen Binding, listed as WEL028, 1 µM", "value": 4, "unit": "%"},
      {"measurement": "inhibition at 1 µM", "setting": "MAPK15 (ERK7); read-out: Inhibition at 1 µM (%), MAPK15 (ERK7), 1 µM, LanthaScreen Binding", "value": 7, "unit": "%"},
      {"measurement": "inhibition at 1 µM", "setting": "DYRK3; [4]", "value": 2, "unit": "%"},
      {"measurement": "Inhibition at 1 µM (%)", "setting": "DYRK3; DYRK3, 1 µM, ZLYTE, ATP Km app, listed as WEL028, 1 µM", "value": "0% and 4%"},
      {"measurement": "inhibition at 1 µM", "setting": "ROCK2", "value": 0, "unit": "%"},
      {"measurement": "inhibition at 1 µM", "setting": "NTRK3 (TRKC); [4]", "value": 4, "unit": "%"},
      {"measurement": "Inhibition at 1 µM (%)", "setting": "NTRK3 (TRKC); NTRK3 (TRKC), 1 µM, ZLYTE, ATP Km app, listed as WEL028, 1 µM", "value": "0% and 8%"}
    ]}
  ]
}
